Entries after “also recorded” stand apart in the source; their conditions may differ.

The values below come from patent US20250134853A1, “COMPOUNDS AND METHODS FOR USING GALLOYLATED POLYPHENOLS TO TREAT DISEASES MEDIATED BY THIOL ISOMERASES” (Beth Israel Deaconess Medical Center, Inc., priority 2023, published 2025).

Assay [1] concerns the target T1, PDI (Homo sapiens, UniProt P07237).
T1 construct: FLAG; made in house; host or cells: Escherichia coli Origami B (DE3)
The assay is described as follows: Di-eosin-GSSG disulfide reductase assay, PDI. The format is biochemical. The note with it: for IC50: Table 1, IC50 curves on PDI activity (FIGS. 13B-E, 17A-E), read-out: Relative PDI inhibition.
Experimental: (§1) Di-eosin-GSSG disulfide reductase assay. The probe di-eosin glutathione disulfide, di-eosin-GSSG, was prepared by incubating 100 μM of GSSG with 1 mM of eosin isothiocyanate in 100 mM potassium phosphate containing 2 mM EDTA (pH 7.4), at 25° C. overnight in the dark. The mixture was passed down a PD-10 column and different fractions were collected. A fold change of fluorescence (Ex: 520 nm, Em: 550 nm) was calculated using samples subjected to either vehicle or 20 mM of DTT. Any fraction with a fold change >5 was kept. Using a stock of 10 mM eosin isothiocyanate, a standard curve was generated and concentration of samples were determined accordingly. Di-eosin-GSSG cleavage of purified thiol isomerases and PDI domains was monitored in a 96-well fluorescence plate format. PDI, CGXC-PDI variants, ERp5, ERp57, ERp46 and PDI domains were assayed at 50 nM in the presence or absence of the indicated small molecules. The assay included a thiol isomerase assay buffer (39 mM KH2PO4, 61 mM K2HPO4, 2 mM EDTA, 5 M DTT, pH 7.4) and 150 nM of the di-eosin-GSSG probe. The increase in fluorescence was determined for 60 min by excitation at 520 nm and emission at 550 nm in a Synergy Biotek 4. The reduction of 150 nM di-eosin-GSSG by 5 μM DTT in the presence or absence of mentioned small molecule or proteins served as a negative control.

Assay [2] deals with T1, PDI. The assay is described as follows: Insulin reductase assay. The format is biochemical. The note with it: 20 μM.
Experimental: Insulin reductase assay. Insulin was prepared by mixing 12.5 mg/mL insulin in 50 mM Tris-HCl, pH 8. 1 M HCl was carefully added to drop the pH to 2.0 for solution clarification. Once the solution clarifies, 1 M NaOH was added to rapidly adjust the pH back to 8.0. The solution was then adjusted to 1.5 mM (10 mg/mL) with 50 mM Tris-HCl, aliquoted and stored in −20° C. until use. 2× concentrations of thiol isomerases were prepared (final concentrations as indicated in each assay) and mixed with 1.2 mM DTT (final 0.3 mM) and 0.4 mM insulin (final 0.1 mM) using a thiol isomerase activity assay buffer. Insulin precipitation from enzyme-mediated reduction was assayed in 96-well clear bottom plates at 650 nm absorption.
For assay [3], the system named is PDI domain fragments (a, a′, ab, abb′, b′xa′). As to the kind of experiment: Di-eosin-GSSG assay on isolated PDI domain fragments. The format is biochemical. The note with it: 20 μM.
Experimental: as §1
In assay [4] the test system is recombinant PDI, ERp57, and ERp5. As to the kind of experiment: Di-eosin-GSSG assay, thiol isomerases at 20 μM compound. The note with it: 15 minute incubation. The format is biochemical.
Assay [5] addresses T2, SARS-CoV-2 M^pro (Severe acute respiratory syndrome coronavirus 2, UniProt P0DTD1). As to conditions: literature values (Table 2); read-out: SARS-CoV-2 M^pro inhibition; cited from earlier work.
The next assay deals with SARS-CoV-2. As to conditions: cited from earlier work.
In assay [6] the target is T2, SARS-CoV-2 M^pro. The note with it: cited from earlier work.
The subject of a further assay is platelets. As to conditions: cited from earlier work.

T1 sequence (P07237 18-508): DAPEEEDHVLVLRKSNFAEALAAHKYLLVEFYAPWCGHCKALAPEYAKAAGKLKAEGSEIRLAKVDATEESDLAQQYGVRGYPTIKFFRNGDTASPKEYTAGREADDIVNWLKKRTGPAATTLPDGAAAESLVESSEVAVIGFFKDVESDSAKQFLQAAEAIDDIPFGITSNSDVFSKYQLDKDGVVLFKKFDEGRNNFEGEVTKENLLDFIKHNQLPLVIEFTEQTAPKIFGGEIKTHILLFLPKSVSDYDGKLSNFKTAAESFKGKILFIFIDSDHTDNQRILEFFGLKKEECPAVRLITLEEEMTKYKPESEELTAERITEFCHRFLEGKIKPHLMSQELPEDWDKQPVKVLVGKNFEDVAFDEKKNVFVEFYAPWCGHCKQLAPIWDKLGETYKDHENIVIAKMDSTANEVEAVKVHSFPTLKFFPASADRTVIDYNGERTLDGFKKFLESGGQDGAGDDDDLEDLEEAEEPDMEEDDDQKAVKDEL

As to “1,2,3,4,6-pentagalloylglucose [Pentagalloyl-glucose]”, the IC50 at PDI [1] is 2.9 µM; on SARS-CoV-2 M^pro [5], 25 µM; with SARS-CoV-2 (Vero Cells, read-out: Inhibition of viral replication IC50), 15 µM. Moreover, the “inhibition of the ability of PDI to reduce insulin” value against PDI [2] is recorded as “inhibited the ability of PDI to reduce insulin”. In addition, the “inhibition of isolated a′ domain cleavage of di-eosin-GSSG” value in assay [3] is “inhibited the ability of isolated a′ domain to cleave di-eosin-GSSG”. The “inhibition of thiol isomerases (PDI, ERp57, ERp5) in words” value in assay [4] was “potently inhibited all thiol isomerases tested”. Besides, the “inhibition of SARS-CoV-2 / infection (in words)” value in the assay with SARS-CoV-2 is recorded as “inhibits SARS-CoV-2 viral infection in culture”. In addition, the “Modeling shows gallic acid interaction with His41 or Glu166” value on SARS-CoV-2 M^pro [6] is given as “occludes His41;; also recorded: reacts with Glu166”. In addition, the antiplatelet activities result in the assay with platelets was “have antiplatelet activities”.
`O=C(OC[C@H]1O[C@@H](OC(=O)c2cc(O)c(O)c(OC(=O)c3cc(O)c(O)c(O)c3)c2)[C@H](OC(=O)c2cc(O)c(O)c(OC(=O)c3cc(O)c(O)c(O)c3)c2)[C@@H](OC(=O)c2cc(O)c(O)c(OC(=O)c3cc(O)c(O)c(O)c3)c2)[C@@H]1OC(=O)c1cc(O)c(O)c(OC(=O)c2cc(O)c(O)c(O)c2)c1)c1cc(O)c(O)c(OC(=O)c2cc(O)c(O)c(O)c2)c1` [Tannic acid]: on PDI [1], the “inhibition of PDI (in words)” value is recorded as “inhibit PDI” and the IC50 was 8.5 µM. At PDI [2], the “inhibition of the ability of PDI to reduce insulin” value was “inhibited the ability of PDI to reduce insulin”. In addition, the “inhibition of isolated a′ domain cleavage of di-eosin-GSSG” value in assay [3] is on record as “inhibited the ability of isolated a′ domain to cleave di-eosin-GSSG”. Further, the “inhibition of thiol isomerases (PDI, ERp57, ERp5) in words” value in assay [4] is given as “potently inhibited all thiol isomerases tested”. Besides, in the assay on SARS-CoV-2, the “Inhibition of viral replication (cell system in which shown)” value is 293T-hACE2 and NIC-H460; the “inhibition of SARS-CoV-2 / infection (in words)” value is given as “blocks SARS-CoV-2 virus infection in 293T cells expressing hACE2”. Also, on SARS-CoV-2 M^pro [6], the “Modeling shows gallic acid interaction with His41 or Glu166” value is on record as “His41; Glu166” and the “hydrogen bonding with M^pro in published molecular dynamic simulations” value was “hydrogen bonding of TA with M^pro Cys145”. Moreover, the antiplatelet activities entry in the assay with platelets is “have antiplatelet activities”.
